In patent US6509344B1, “Indenoisoquinolines as antineoplastic agents” (The United States of America as represented by the …, priority 1998, dated 2003):
Entries after “also recorded” stand apart in the source; their conditions may differ. Read-outs that look alike come from different tables or passages of the source.

How the values were obtained:
UACC-62 = assay: NCI human cancer cell line screen (COMPARE screening), Melanoma UACC-62; assay type: cell-based
From the text: (§1) Considering the diversity of cancer in terms of cell type, morphology, growth rate and other cellular characteristics, the U.S. National Cancer Institute (NCI) has developed a “disease-oriented” approach to anticancer activity screening (M. R. Boyd, in “Principle of Practice of Oncology” […]. Rosenberg (Eds.) Vol. 3, PPO Update, No. 10, 1989). This in vitro prescreening system is based on the measurement of anticancer cytotoxicity against human cancer cell line panels consisting of approximately 60 cell lines of major human cancers (including leukemia and slower growing tumor cells such as lung, colon, breast, skin, kidney, etc.) and is referred hereinafter as “COMPARE” screening. An important advantage of the new in vitro screening panels is the opportunity to facilitate identification of compounds that are selectively more cytotoxic to cells of certain types of cancers, thus increasing the ability to select compounds for further study with respect to specific diseases. The indenoisoquinolines were examined for antiproliferative activity against the human cancer cell lines in the National Cancer Institute screen (COMPARE screening), in which the activity of each compound was evaluated with approximately […] different cancer cell lines of diverse tumor origins.

OVCAR-3 = assay: NCI human cancer cell line screen (COMPARE screening), Ovarian OVCAR-3; assay type: cell-based
From the text: as §1

SF-539 = assay: NCI human cancer cell line screen (COMPARE screening), CNS SF-539; assay type: cell-based
From the text: as §1

DU-145 = assay: NCI human cancer cell line screen (COMPARE screening), Prostate DU-145; assay type: cell-based
From the text: as §1

topoisomerase I = molecular target: T1, topoisomerase I (Homo sapiens, UniProt P11387); assay: Topoisomerase I-mediated DNA cleavage assay (3'-end-labeled 161 bp pBluescript SK(-) fragment); assay type: biochemical; settings: for Top 1 Cleavage: relative to the activity of 1 μM camptothecin
T1 sequence (P11387 1-765): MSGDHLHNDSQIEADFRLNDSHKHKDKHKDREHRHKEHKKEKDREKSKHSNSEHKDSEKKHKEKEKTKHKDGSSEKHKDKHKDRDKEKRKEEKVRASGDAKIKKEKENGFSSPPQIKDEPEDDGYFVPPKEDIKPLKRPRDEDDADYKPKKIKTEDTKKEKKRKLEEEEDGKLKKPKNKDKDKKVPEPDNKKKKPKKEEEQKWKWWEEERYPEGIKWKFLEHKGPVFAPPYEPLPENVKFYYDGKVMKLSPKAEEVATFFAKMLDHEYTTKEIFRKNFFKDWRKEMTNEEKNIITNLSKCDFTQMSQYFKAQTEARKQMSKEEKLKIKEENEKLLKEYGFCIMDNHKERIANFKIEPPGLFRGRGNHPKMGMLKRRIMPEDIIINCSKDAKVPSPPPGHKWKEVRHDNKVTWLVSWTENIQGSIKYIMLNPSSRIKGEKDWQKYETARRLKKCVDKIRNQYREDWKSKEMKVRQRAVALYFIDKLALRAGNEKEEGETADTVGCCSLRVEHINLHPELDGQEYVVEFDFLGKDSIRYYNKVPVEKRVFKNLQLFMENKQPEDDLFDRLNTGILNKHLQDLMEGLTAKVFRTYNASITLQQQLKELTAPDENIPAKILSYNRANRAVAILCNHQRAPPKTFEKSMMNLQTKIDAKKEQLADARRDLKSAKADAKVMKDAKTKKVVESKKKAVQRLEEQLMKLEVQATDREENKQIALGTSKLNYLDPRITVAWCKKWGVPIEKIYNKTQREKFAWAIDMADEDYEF
Description: Topoisomerase I-Mediated DNA Cleavage Reactions Using 3′-End-labeled 161 BP Plasmid DNA
The 161 bp fragment from pBluescript SK(−) phagemid DNA (Stratagene, La Jolla, Calif.) was cleaved with the restriction endonuclease Pvu II and Hind III (New England Biolabs, Beverly, Mass.) in supplied NE buffer 2 (10 μL reactions) for 1 h at 37° C., separated by electrophoresis in a 1% agarose gel made in 1×TBE buffer. The 161 bp fragment was eluted from the gel slice (centrilutor by Amicon) and concentrated in a centricon 50 centrifugal concentrator (Amicon, Beverly, Mass.). Approximately 200 ng of the fragment was 3′-end-labeled at the Hind III site by fill-in reaction with [alpha-^32P]-dCTP and 0.5 mM dATP, dGTP, and dTTP, in React 2 buffer (50 mM Tris-HCl, pH 8.0, […], 50 mM NaCl) with 0.5 units of DNA polymerase I (Klenow fragment). Labeling reactions were followed by phenol-chloroform extraction and ethanol precipitation. The resulting 161 bp 3′-endlabeled DNA fragment was resuspended in water. Aliquots (approximately 50,000 dpm/reaction) were incubated with topoisomerase I at 30° C. for 15 min in the presence of the indicated drug. Reactions were terminated by adding 0.5% SDS. After ethanol precipitation, the samples were resuspended in loading buffer (80% formamide, 10 mM sodium hydroxide, 1 mM sodium EDTA, 0.1% xylene cyanol, and 0.1% bromophenol blue, pH 8.0), and separated in a denaturing gel (16% polyacrylamide, 7 M urea) run at 51° C. The gel was dried and visualized by using a Phosphoimager and ImageQuant software (Molecular Dynamics, Sunnyvale, Calif.).

human topoisomerase II = assay: Topoisomerase II-mediated DNA cleavage assay (5'-end-labeled human c-myc DNA); assay type: biochemical
SN12C = assay: NCI human cancer cell line screen (COMPARE screening), Renal SN12C; assay type: cell-based
From the text: as §1

[1] = system: approximately 55 different cancer cell lines of diverse tumor origins; assay: NCI screen mean graph midpoint over all cell lines tested; assay type: cell-based, human; settings: for IC50: average GI50 for all cell lines tested (approximately 55), values outside test range taken as 10^-8 or 10^-4 molar, read-out: MGM (mean graph midpoint)
From the text: as §1

HCT-116 = assay: NCI human cancer cell line screen (COMPARE screening), Colon HCT-116; assay type: cell-based
From the text: as §1

MDA-MB-435 = assay: NCI human cancer cell line screen (COMPARE screening), Breast MDA-MB-435; assay type: cell-based
From the text: as §1

HOP-62 = assay: NCI human cancer cell line screen (COMPARE screening), Lung HOP-62; assay type: cell-based
From the text: as §1

[2] = molecular target: T2, topoisomerase I cleavage complexes (Homo sapiens, UniProt P11387); assay: Salt reversal of topoisomerase I cleavage complexes; assay type: biochemical; settings: increasing salt concentration
T2 sequence (P11387 1-765): T1 sequence (P11387 1-765)

supercoiled SV40 DNA = assay: SV40 DNA unwinding assay; assay type: biochemical; settings: at higher concentrations
Description: With some of the compounds (e.g. 27), the activity seemed to increase initially as the concentration was increased, but then it declined at higher concentrations. […] The unwinding assay using supercoiled DNA in the presence of topoisomerase I is a simple procedure to detect DNA intercalation.
After electrophoresis, DNA bands were stained in 10 μg/mL of ethidium bromide and visualized by transillumination with UV light (300 nm).

[3] = Homo sapiens, UACC-62, concentration causing 50% growth inhibition, read-out: Cytotoxicity (G150 in μM) Melanoma UACC-62
[4] = Homo sapiens, OVCAR-3, concentration causing 50% growth inhibition, read-out: Cytotoxicity (G150 in μM) Ovarian OVCAR-3
[5] = Homo sapiens, SF-539, concentration causing 50% growth inhibition, read-out: Cytotoxicity (G150 in μM) CNS SF-539
[6] = Homo sapiens, DU-145, concentration causing 50% growth inhibition, read-out: Cytotoxicity (G150 in μM) Prostate DU-145
[7] = Homo sapiens, SN12C, concentration causing 50% growth inhibition, read-out: Cytotoxicity (G150 in μM) Renal SN12C
[8] = Homo sapiens, HCT-116, concentration causing 50% growth inhibition, read-out: Cytotoxicity (G150 in μM) Colon HCT-116
[9] = Homo sapiens, MDA-MB-435, concentration causing 50% growth inhibition, read-out: Cytotoxicity (G150 in μM) Breast MDA-MB-435
[10] = Homo sapiens, HOP-62, concentration causing 50% growth inhibition, read-out: Cytotoxicity (G150 in μM) Lung HOP-62

SMILES | IC50 (OVCAR-3) [µM] | IC50 (DU-145) [µM] | activity in the topoisomerase I cleavage assay (in words) (topoisomerase I) | Top 1 Cleavage (topoisomerase I) | induction of topoisomerase II cleavage complexes (human topoisomerase II) | IC50 [1] [µM] | IC50 (HCT-116) [µM] | IC50 (MDA-MB-435) [µM] | IC50 (HOP-62) [µM] | IC50 (UACC-62; [3]) [µM] | IC50 (OVCAR-3; [4]) [µM] | IC50 (SF-539; [5]) [µM] | IC50 (DU-145; [6]) [µM] | IC50 (SN12C; [7]) [µM] | IC50 ([1]; Homo sapiens) [µM] | IC50 (HCT-116; [8]) [µM] | IC50 (MDA-MB-435; [9]) [µM] | IC50 (HOP-62; [10]) [µM] | reversal of induced cleavage sites by salt treatment [2] | also measured
COc1cc2c(cc1OC)[C@H]1C(=O)c3cc4c(cc3[C@H]1N(C)C2=O)OCO4 (relative stereo) [Compound 20, cis-5,6,12,13-Tetrahydro-2,3-dimethoxy-6-methyl-5,11-dioxo-8,9(methylenedioxy)-(11H)indeno[1,2-c]isoquinoline] | 6.7 | 4.1 | weak | ± (those compounds having less than 20% of the activity of 1 μM camptothecin) | no effect | 5 | 2 | 17 | 9.4 |  |  |  |  |  |  |  |  |  |  | IC50 (UACC-62): 0.42 µM; IC50 (SF-539): 3.1 µM; IC50 (SN12C): 2.1 µM; cytotoxicity (MGM) relative to lead compound 1 [1]: lower MGM than the lead compound 1
O=C1c2ccccc2-c2c1c1ccccc1c(=O)n2CCCCO [Compound 7, 5,6-Dihydro-6-(4-hydroxy-1-butyl)-5,11-diketo-11H-indeno[1,2-c]isoquinoline] |  |  |  | + (those compounds having between 20% and 50% of the activity of 1 μM camptothecin) | weak topoisomerase II activity |  |  |  |  | 4.4 | 74 | 4.6 | > 100 | 7.4 | 16 | 3.2 | > 100 | 13 |  | cytotoxicity (MGM) relative to lead compound 1 ([1]; comparison in words): lower MGM than the lead compound 1
O=C1c2ccccc2-c2c1c1ccccc1c(=O)n2CCCCCO [Compound 8, 5,6-Dihydroxy-6-(5-hydroxy-1-pentyl)-5,11-diketo-11H-indeno[1,2-c]isoquinoline] | 93 | 3.4 |  | + (those compounds having between 20% and 50% of the activity of 1 μM camptothecin) | weak topoisomerase II activity | 14 | 3.9 | 41 | 4.4 |  |  |  |  |  |  |  |  |  |  | IC50 (UACC-62): 14.3 µM; cytotoxicity (MGM) relative to lead compound 1 [1]: lower MGM than the lead compound 1
CCCCn1c2c(c3ccccc3c1=O)C(=O)c1cc3c(cc1-2)OCO3 [Compound 13b, 6-(1-Butyl)-5,6-dihydro-5,11-diketo-8,9-methylenedioxy-11H-indeno[1,2-c]isoquinoline] |  |  |  | + (those compounds having between 20% and 50% of the activity of 1 μM camptothecin) | no effect |  |  |  |  | 8.2 | 94 | 9 | 38 | 37 | 30 | 2.9 | > 100 | 17 |  | 
C=CCn1c2c(c3cc(OC)c(OC)cc3c1=O)C(=O)c1cc3c(cc1-2)OCO3 [Compound 13c, 6-Allyl-2,3-dimethoxy-5,6-dihydro-5,11-oxo-8,9-(methylenedioxy)-11H-indeno[1,2-c]isoquinoline] | 6.6 | 3.2 | rival the topoisomerase activity of 1 | + (those compounds having between 20% and 50% of the activity of 1 μM camptothecin) | no effect | 4.2 | 2.3 | 5.2 | 3.4 |  |  |  |  |  |  |  |  |  | reversed by salt treatment | IC50 (SF-539): 2.2 µM; IC50 (SN12C): 2.6 µM
CCn1c2c(c3cc(OC)c(OC)cc3c1=O)C(=O)c1cc3c(cc1-2)OCO3 [Compound 13k, 6-Ethyl-5,6-dihydro-5,11-diketo-2,3-dimethoxy-8,9-methylenedioxy-11H-indeno[1,2-c]isoquinoline] |  |  | very weak activity | ± (those compounds having less than 20% of the activity of 1 μM camptothecin) | no effect |  |  |  |  | 2.1 | 3 | 2 | 2.3 | 3.6 | 2.4 | 2.6 | 2.6 | 2.2 |  | cytotoxicity (MGM) relative to lead compound 1 ([1]; comparison in words): lower MGM than the lead compound 1
O=C(O)CCCn1c2c(c3ccccc3c1=O)C(=O)c1ccccc1-2 [Compound 26, 6-(3-Carboxy-1-propyl)-5,6-dihydro-5,11-diketo-11H-indeno[1,2-c]isoquinoline] |  |  | most potent; also recorded: rival the topoisomerase activity of 1 | ++ (those compounds having greater than 50% of the activity of 1 μM camptothecin) | induced topoisomerase II cleavage complexes |  |  |  |  | 73 | > 100 |  | 48 | 27 | 48 | 40 | > 100 | 87 | reversed by salt treatment | DNA unwinding at higher concentrations (supercoiled SV40 DNA): does unwind DNA
CC[C@@]1(O)C(=O)OCc2c1cc1n(c2=O)Cc2cc3ccccc3nc2-1 [Compound 34, camptothecin, reference compound] |  |  |  |  |  |  |  |  |  |  |  |  |  |  |  |  |  |  | reversed by salt treatment | 
